Several values for one entry are separate records, joined by “and”; a condition that tells them apart may be missing. Equal values may be shown once. Toxic doses and inconclusive results are not listed. No stated cut-off is given here; in the data, active means T/C of 150% or more; inactive means T/C below 125%.
Test system: L1210 leukemia ip in BDF1 mice, survival T/C
Assay: NCI In Vivo Anticancer Drug Screen. Data for tumor model L1210 Leukemia (intraperitoneal) in B6D2F1 (BDF1) mice
Details: endpoint: mean survival time, higher = longer survival
Procedure: The antitumor activity of compounds was measured in mice bearing transplantable tumors. Survival or tumor size were measured and the results are expressed as the measurement made in the treated group (T) divided by the measurement made in the vehicle treated control group (C). The tumor model used in this assay is L1210 Leukemia (intraperitoneal) in B6D2F1 (BDF1) mice

[1] = dose: 50.0 mg/kg/injection, schedule: Q01DX001 (ip), vehicle: saline
[2] = dose: 100.0 mg/kg/injection, schedule: Q01DX001 (ip), vehicle: saline
[3] = dose: 200.0 mg/kg/injection, schedule: Q01DX001 (ip), vehicle: saline
[4] = dose: 400.0 mg/kg/injection, schedule: Q01DX001 (ip), vehicle: saline
[5] = dose: 100.0 mg/kg/injection, schedule: Q01DX001 (ip), vehicle: saline with Tween-80
[6] = dose: 200.0 mg/kg/injection, schedule: Q01DX001 (ip), vehicle: saline with Tween-80
[7] = dose: 400.0 mg/kg/injection, schedule: Q01DX001 (ip), vehicle: saline with Tween-80
[8] = dose: 100.0 mg/kg/injection, schedule: Q04DX003 (ip), vehicle: Klucel (hydroxypropylcellulose) (HPC)
[9] = dose: 200.0 mg/kg/injection, schedule: Q01DX009 (ip), vehicle: Klucel (hydroxypropylcellulose) (HPC)
[10] = dose: 200.0 mg/kg/injection, schedule: Q04DX003 (ip), vehicle: Klucel (hydroxypropylcellulose) (HPC)
[11] = dose: 400.0 mg/kg/injection, schedule: Q01DX009 (ip), vehicle: Klucel (hydroxypropylcellulose) (HPC)
[12] = dose: 400.0 mg/kg/injection, schedule: Q04DX003 (ip), vehicle: Klucel (hydroxypropylcellulose) (HPC)
[13] = dose: 100.0 mg/kg/injection, schedule: Q01DX009 (ip), vehicle: saline with Tween-80
[14] = dose: 200.0 mg/kg/injection, schedule: Q01DX009 (ip), vehicle: saline with Tween-80
[15] = dose: 400.0 mg/kg/injection, schedule: Q01DX009 (ip), vehicle: saline with Tween-80
[16] = dose: 100.0 mg/kg/injection, schedule: Q01DX009 (ip), vehicle: Klucel (hydroxypropylcellulose) (HPC)
[17] = dose: 25.0 mg/kg/injection, schedule: Q04DX003 (ip), vehicle: Klucel (hydroxypropylcellulose) (HPC)
[18] = dose: 50.0 mg/kg/injection, schedule: Q04DX003 (ip), vehicle: Klucel (hydroxypropylcellulose) (HPC)

Measured: T/C

CCCCN(C(C)=O)c1nnc(NC(C)=O)s1
inactive: dose: 100.0 mg/kg/injection, schedule: Q04DX002 (ip), vehicle: saline with Tween-80 102 % of control | dose: 200.0 mg/kg/injection, schedule: Q04DX002 (ip), vehicle: saline with Tween-80 98 % of control | dose: 400.0 mg/kg/injection, schedule: Q04DX002 (ip), vehicle: saline with Tween-80 98 % of control

Cc1ccc(C(CO)(CO)OC(CO)(CO)c2ccc(C)c(C)c2)cc1C
inactive: [1] 105 % of control | [2] 97 % of control | [3] 105 % of control | [4] 105 % of control

O=C1SCCC1NP(=O)(OCc1ccccc1)OCc1ccccc1 (stereo not given)
inactive: [5] 102 % of control | [6] 102 % of control | [7] 98 % of control

O=C(Cl)c1ccc(OC(Cl)(Cl)Cl)cc1
inactive: [8] 109 % of control | [9] 100 % of control | [10] 92 % of control | [11] 95 % of control | [12] 94 % of control

O=[N+]([O-])c1ccc(O)c(CNCCCNCc2cc([N+](=O)[O-])ccc2O)c1
inactive: [2] 102 % of control | [3] 98 % of control | [4] 102 % of control

CC1(C)C=CC(C)(C)c2c(NS(=O)(=O)c3ccccc3)ccc(NS(=O)(=O)c3ccccc3)c21
inactive: [13] 97 % of control | [14] 92 % of control | [15] 94 % of control

O=C(Nc1ccc(Br)cc1C(=O)O)c1cccc(Br)c1
inactive: dose: 100.0 mg/kg/injection, schedule: Q01DX001 (ip), vehicle: other 103 % of control

O=S(=O)(OCC1CO1)c1ccc(Cl)c(Cl)c1 (stereo not given)
inactive: dose: 100.0 mg/kg/injection, schedule: Q01DX008 (ip), vehicle: Klucel (hydroxypropylcellulose) (HPC) 96 % of control | dose: 200.0 mg/kg/injection, schedule: Q01DX008 (ip), vehicle: Klucel (hydroxypropylcellulose) (HPC) 102 % of control | dose: 400.0 mg/kg/injection, schedule: Q01DX008 (ip), vehicle: Klucel (hydroxypropylcellulose) (HPC) 106 % of control

CCOC(=O)c1c[nH]c2cc(Cl)ccc2c1=O
inactive: [16] 97 % of control | [8] 98 % of control | [9] 100 % of control | [10] 102 % of control | [11] 98 % of control | [12] 96 % of control

COCn1cnc2c(ccn2C2OC(CO)C(O)C2O)c1=O (stereo not given)
inactive: [1] 104 % of control | [2] 93 % of control | [3] 106 % of control | [4] 106 % of control

Cc1ccc(NC(=O)Nc2ccccc2F)cc1NC(=O)Nc1ccccc1F
inactive: [13] 93 % of control | [14] 88 % of control | [15] 94 % of control

O=C(O)c1ccc(/C=C\c2cccc(S(=O)(=O)F)c2)cc1
inactive: [5] 100 % of control | [6] 97 % of control | [7] 92 % of control

c1ccc(OCCC[P+](c2ccccc2)(c2ccccc2)c2ccccc2)cc1
inactive: [1] 100 % of control

C=CCn1c(/N=C\N(C)C)cc(=O)[nH]c1=O
inactive: [16] 103 % of control | [8] 97 % of control | [9] 107 % of control | [10] 97 % of control | [11] 100 % of control | [12] 89 % of control

CCCCCCCCN(CCCCCCCC)C(C)C(=O)c1ccc2cc(Br)c3ccccc3c2c1 (stereo not given)
inactive: dose: 100.0 mg/kg/injection, schedule: Q04DX003 (ip), vehicle: acetone 96 % of control | dose: 200.0 mg/kg/injection, schedule: Q04DX003 (ip), vehicle: acetone 107 % of control | dose: 400.0 mg/kg/injection, schedule: Q04DX003 (ip), vehicle: acetone 103 % of control

O=C(O)C(CSC(c1ccccc1)(c1ccccc1)c1ccccc1)NSc1ccccc1[N+](=O)[O-] (stereo not given)
inactive: [16] 114 % of control | [8] 98 % of control | dose: 175.0 mg/kg/injection, schedule: Q01DX009 (ip), vehicle: Klucel (hydroxypropylcellulose) (HPC) 98 % of control | [9] 121 % of control | [10] 102 % of control | dose: 265.0 mg/kg/injection, schedule: Q01DX009 (ip), vehicle: Klucel (hydroxypropylcellulose) (HPC) 100 % of control | [11] 110 % of control | [12] 95 % of control

C=CC12CCCCC1C(=C)C(=O)OC2 (stereo not given)
inactive: dose: 12.5 mg/kg/injection, schedule: Q04DX002 (ip), vehicle: saline with Tween-80 92 % of control | dose: 25.0 mg/kg/injection, schedule: Q04DX002 (ip), vehicle: saline with Tween-80 99 % of control | dose: 50.0 mg/kg/injection, schedule: Q04DX002 (ip), vehicle: saline with Tween-80 96 % of control

Cc1ccc(C(C)(c2ccccc2)C(C)(CC=O)CC(=O)O)cc1 (stereo not given)
inactive: dose: 100.0 mg/kg/injection, schedule: Q04DX003 (ip), vehicle: saline with Tween-80 92 % of control | dose: 200.0 mg/kg/injection, schedule: Q04DX003 (ip), vehicle: saline with Tween-80 92 % of control | dose: 400.0 mg/kg/injection, schedule: Q04DX003 (ip), vehicle: saline with Tween-80 96 % of control

ClCCN(CCCl)c1ccc(/C=C\c2ccnc3ccccc23)cc1
inactive: dose: 100.0 mg/kg/injection, schedule: Q01DX009 (ip), vehicle: carboxymethylcellulose (CMC) 88 % of control | dose: 100.0 mg/kg/injection, schedule: Q04DX003 (ip), vehicle: other 96 % of control | dose: 200.0 mg/kg/injection, schedule: Q01DX009 (ip), vehicle: other 90 % of control | dose: 200.0 mg/kg/injection, schedule: Q04DX003 (ip), vehicle: other 96 % of control | dose: 400.0 mg/kg/injection, schedule: Q04DX003 (ip), vehicle: other 98 % of control

O=C(NO)Nc1nc(Cl)c(Cl)nc1Cl
inactive: dose: 25.0 mg/kg/injection, schedule: Q01DX009 (ip), vehicle: water 94 % of control | dose: 50.0 mg/kg/injection, schedule: Q01DX009 (ip), vehicle: water 100 % of control

CCCCCCCN1CCCC(OC(=O)N(C)C)C1 (stereo not given)
inactive: dose: 25.0 mg/kg/injection, schedule: Q04DX002 (ip), vehicle: saline 110 % of control | dose: 50.0 mg/kg/injection, schedule: Q04DX002 (ip), vehicle: saline 103 % of control | dose: 100.0 mg/kg/injection, schedule: Q04DX002 (ip), vehicle: saline 110 % of control and 89 % of control

C#CCOS(=O)OCCCCCCCCCC (stereo not given) (tested in a mixture with another compound)
inactive: [8] 105 % of control | [10] 91 % of control | [12] 94 % of control

COc1[nH]c(=O)ncc1Br
inactive: [1] 105 % of control | [2] 103 % of control | [3] 109 % of control | [4] 103 % of control

Cc1c(O)ccc2c1CCCC2
inactive: [17] 103 % of control | [18] 97 % of control | dose: 100.0 mg/kg/injection, schedule: Q01DX009 (ip), vehicle: saline sonified 92 % of control | [8] 92 % of control and 117 % of control | dose: 200.0 mg/kg/injection, schedule: Q01DX009 (ip), vehicle: saline sonified 88 % of control | [10] 107 % of control | dose: 400.0 mg/kg/injection, schedule: Q01DX009 (ip), vehicle: saline sonified 94 % of control | [12] 103 % of control

CCCCC(CC)NC(=O)c1cc(OC)c(OC)c(OC)c1 (stereo not given)
inactive: [17] 106 % of control | [18] 102 % of control | [8] 105 % of control | [10] 90 % of control | [12] 110 % of control
